What was measured:
5-HT2C = 5-HT2C (Homo sapiens, UniProt P28335); assay: Radioligand ([3H]-LSD) competition binding assays, 5-HT2C versus 5-HT2A; conditions: FIG. 4
Protocol: Radioligands Binding Assays. Binding buffer consisted of 50 mM Tris HCl, 10 mM MgCl2, 0.1 mM EDTA disodium dihydrate in autoclaved deionized water. The solution was adjusted to pH 7.4 with […] NaOH(aq) and stored at 4° C. This solution was used for membrane preparation generation as well as in saturation and competition binding assays.
For the generation of membrane preparations, 15-cm plates of PSYLI2 cells (HEK293T cell line stably expressing psychLight2; mycoplasma free) or HEK293T cells (ATCCCRL-11268; mycoplasma free) lipofected with pCMV-GRAB_5-HT were grown in Dulbecco's Modified Eagle Media (DMEM) (Fisher, 11995073) containing 10% fetal bovine serum (Fisher, 26-140-079) and 1% penicillin/streptomycin (Fisher, 15140-163). When the cells were >90% confluent, the media was removed, and the cells were washed with Dulbecco's Phosphate Buffered Saline (DPBS, 15 mL) (ThermoFisher, #14190-250). Next, DMEM (15 mL) lacking fetal bovine serum and penicillin/streptomycin was added, and the cells were serum-starved for 4-12 h. All but ~5 mL of the media was removed from the plates before placing them on ice. […] The suspension was transferred to 2.0 mL Eppendorf tubes in 1.0 mL aliquots, saving a single aliquot of 0.25-0.50 mL suspension to use for quantification of protein concentration via a Bradford assay. […]

[1] = biological target: T1, human recombinant 5-HT2CR (Homo sapiens, UniProt P28335); assay: IPOne HTRF assay, 5-HT2CR; format: cell-based; conditions: for antagonist activity at 5-HT2C, IP-One / selectivity of antagonism, 5-HT2C versus 5-HT2A, IP-One: antagonist mode
T1 construct: host or cells: CHO-K1
T1 sequence (P28335 33-458): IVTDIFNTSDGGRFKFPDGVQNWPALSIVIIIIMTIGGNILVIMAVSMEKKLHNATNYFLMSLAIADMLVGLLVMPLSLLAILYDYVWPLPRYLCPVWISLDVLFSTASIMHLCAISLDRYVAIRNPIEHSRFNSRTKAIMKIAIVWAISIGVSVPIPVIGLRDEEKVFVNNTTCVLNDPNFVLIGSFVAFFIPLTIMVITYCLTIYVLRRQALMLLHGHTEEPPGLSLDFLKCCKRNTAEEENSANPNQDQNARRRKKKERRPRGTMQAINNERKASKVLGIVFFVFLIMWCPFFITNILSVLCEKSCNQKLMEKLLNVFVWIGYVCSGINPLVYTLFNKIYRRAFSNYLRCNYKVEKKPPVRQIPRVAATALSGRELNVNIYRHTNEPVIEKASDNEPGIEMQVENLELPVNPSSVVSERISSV
Protocol: IPOne Assays. The 5-HT2AR and 5-HT2CR IPOne HTRF assays were performed at Epics Therapeutics S.A. (Belgium, FAST-0505I) using conventional methods. Briefly, CHO-K1 cells expressing human recombinant 5-HT2AR or 5-HT2CR grown to mid-log phase in culture media without antibiotics were detached with PBS-EDTA, centrifuged, and resuspended in medium without antibiotics buffer. Then, 20,000 cells were distributed in a 96-well plate and incubated overnight at 37° C. with 5% CO2. For agonist testing, the medium was removed and 20 μL of assay buffer plus 20 μL of test compound or reference agonist (α-Me-5-HT) was added to each well. The plate was incubated for 60 min at 37° C. with 5% CO2. For antagonist testing, the medium was removed and 20 μL of assay buffer plus 20 μL of test compound or reference antagonist (ketanserin) was added to each well. The plate was incubated for 60 min at 37° C. with 5% CO2. After addition of the lysis buffer containing IP1-d2 and anti-IP1 cryptate detection reagents, plates were incubated for 1 h at room temperature and fluorescence ratios were measured according to the manufacturer's specifications using the HTRF kit.

YANK3 = biological target: T2, YANK3 (Homo sapiens, UniProt Q86UX6); conditions: 10 μM; cited from earlier work
T2 construct: purchased Eurofins DiscoverX KINOMEscan scanEDGE
T2 sequence (Q86UX6 whole entry): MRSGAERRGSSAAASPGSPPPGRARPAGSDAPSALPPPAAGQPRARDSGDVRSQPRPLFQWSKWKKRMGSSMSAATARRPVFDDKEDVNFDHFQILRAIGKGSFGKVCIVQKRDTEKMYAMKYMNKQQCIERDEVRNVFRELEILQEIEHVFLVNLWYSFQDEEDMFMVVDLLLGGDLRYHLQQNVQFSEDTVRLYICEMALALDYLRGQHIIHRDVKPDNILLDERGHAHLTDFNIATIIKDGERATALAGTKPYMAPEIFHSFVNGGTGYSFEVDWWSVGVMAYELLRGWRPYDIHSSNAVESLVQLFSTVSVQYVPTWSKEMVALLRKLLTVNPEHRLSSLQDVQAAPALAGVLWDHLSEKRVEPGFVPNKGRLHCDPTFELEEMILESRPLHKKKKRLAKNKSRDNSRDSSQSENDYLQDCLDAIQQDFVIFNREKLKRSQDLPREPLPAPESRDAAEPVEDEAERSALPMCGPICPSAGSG

AURKA = biological target: T3, AURKA (Homo sapiens, UniProt O14965); conditions: 10 μM; cited from earlier work
T3 construct: purchased Eurofins DiscoverX
T3 sequence (O14965 whole entry): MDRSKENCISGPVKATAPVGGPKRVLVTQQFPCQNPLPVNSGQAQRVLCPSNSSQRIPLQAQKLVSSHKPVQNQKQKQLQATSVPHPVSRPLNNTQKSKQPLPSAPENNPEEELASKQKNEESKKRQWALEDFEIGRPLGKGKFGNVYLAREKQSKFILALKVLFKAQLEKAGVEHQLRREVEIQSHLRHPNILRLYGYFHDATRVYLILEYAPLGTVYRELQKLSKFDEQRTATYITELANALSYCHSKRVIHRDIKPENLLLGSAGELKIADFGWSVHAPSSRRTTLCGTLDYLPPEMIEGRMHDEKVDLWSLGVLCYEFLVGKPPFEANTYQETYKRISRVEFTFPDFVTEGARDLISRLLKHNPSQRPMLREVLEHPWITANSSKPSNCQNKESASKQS

TRKA = biological target: T4, TRKA (Homo sapiens, UniProt P04629); conditions: 10 μM; cited from earlier work
T4 construct: purchased Eurofins DiscoverX KINOMEscan scanEDGE
T4 sequence (P04629 33-796): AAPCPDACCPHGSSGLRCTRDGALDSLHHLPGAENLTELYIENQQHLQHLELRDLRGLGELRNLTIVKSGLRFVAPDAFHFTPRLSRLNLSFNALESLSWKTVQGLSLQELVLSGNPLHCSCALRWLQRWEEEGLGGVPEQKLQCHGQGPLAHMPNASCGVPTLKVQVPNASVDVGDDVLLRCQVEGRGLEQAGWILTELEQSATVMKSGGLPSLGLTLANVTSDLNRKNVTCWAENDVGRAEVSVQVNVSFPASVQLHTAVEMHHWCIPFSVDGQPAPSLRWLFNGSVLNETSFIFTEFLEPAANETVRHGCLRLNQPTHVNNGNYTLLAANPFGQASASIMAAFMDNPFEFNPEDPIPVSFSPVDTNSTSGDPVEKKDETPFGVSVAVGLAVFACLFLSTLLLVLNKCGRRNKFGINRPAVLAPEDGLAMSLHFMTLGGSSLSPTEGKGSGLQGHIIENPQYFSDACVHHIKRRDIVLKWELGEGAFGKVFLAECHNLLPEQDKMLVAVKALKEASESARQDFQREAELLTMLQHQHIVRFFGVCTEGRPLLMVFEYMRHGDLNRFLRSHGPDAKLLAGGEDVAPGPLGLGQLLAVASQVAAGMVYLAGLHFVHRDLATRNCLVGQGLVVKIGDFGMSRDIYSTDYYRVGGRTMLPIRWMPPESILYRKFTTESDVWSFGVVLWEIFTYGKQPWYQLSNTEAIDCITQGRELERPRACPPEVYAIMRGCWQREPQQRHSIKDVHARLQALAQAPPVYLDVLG

RET = biological target: T5, RET (Homo sapiens, UniProt P07949); conditions: 10 μM; cited from earlier work
T5 construct: purchased Eurofins DiscoverX KINOMEscan scanEDGE
T5 sequence (P07949 29-1114): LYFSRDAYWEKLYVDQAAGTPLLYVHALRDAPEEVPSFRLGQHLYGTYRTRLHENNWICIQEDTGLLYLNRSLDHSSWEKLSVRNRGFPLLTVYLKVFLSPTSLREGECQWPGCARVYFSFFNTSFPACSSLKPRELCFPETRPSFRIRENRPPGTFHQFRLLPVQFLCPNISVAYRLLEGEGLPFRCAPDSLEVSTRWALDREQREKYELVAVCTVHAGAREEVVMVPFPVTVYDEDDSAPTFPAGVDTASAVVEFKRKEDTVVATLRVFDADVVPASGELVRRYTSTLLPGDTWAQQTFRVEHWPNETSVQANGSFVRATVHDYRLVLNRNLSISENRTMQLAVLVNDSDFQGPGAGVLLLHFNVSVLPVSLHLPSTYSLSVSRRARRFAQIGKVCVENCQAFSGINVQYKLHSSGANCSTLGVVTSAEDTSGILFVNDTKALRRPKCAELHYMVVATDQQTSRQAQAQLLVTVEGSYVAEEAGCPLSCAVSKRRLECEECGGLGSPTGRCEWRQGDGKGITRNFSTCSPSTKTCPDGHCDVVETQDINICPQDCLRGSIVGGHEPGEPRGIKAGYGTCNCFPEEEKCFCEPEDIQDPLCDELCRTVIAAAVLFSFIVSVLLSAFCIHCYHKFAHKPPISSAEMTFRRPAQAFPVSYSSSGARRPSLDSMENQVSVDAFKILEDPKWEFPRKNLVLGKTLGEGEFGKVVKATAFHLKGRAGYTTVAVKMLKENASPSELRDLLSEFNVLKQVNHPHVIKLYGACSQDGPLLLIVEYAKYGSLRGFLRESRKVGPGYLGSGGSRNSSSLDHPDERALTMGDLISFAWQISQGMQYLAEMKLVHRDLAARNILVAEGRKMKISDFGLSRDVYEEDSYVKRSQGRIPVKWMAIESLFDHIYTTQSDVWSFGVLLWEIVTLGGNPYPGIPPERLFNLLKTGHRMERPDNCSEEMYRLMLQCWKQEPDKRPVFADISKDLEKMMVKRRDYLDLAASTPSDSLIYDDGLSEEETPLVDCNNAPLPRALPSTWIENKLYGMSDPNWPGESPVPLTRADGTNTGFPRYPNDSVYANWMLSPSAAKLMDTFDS

Row | Compound | affinity for 5-HT2C relative to 5-HT2A (5-HT2C) | activation of 5-HT2C, IP-One agonist mode [1] | antagonist activity at 5-HT2C, IP-One [1] | selectivity of antagonism, 5-HT2C versus 5-HT2A, IP-One [1] | Percent Control (YANK3) [%] | Percent Control (AURKA) [%] | Percent Control (TRKA) [%] | Percent Control (RET) [%]
1 | COc1ccc2c(c1)N(CCN(C)C)/C(=C/C(C)=O)S2.O=C(O)/C=C/C(=O)O [HTW_B_14 fumarate, (Z)-1-(3-(2-(dimethylamino)ethyl)-5-methoxybenzo[d]thiazol-2(3H)-ylidene)propan-2-one Fumarate Salt (1:1)] | higher affinity ligands for 5-HT2C than 5-HT2A | no activation | antagonist activity | moderate selectivity for antagonism of 5-HT2C | – | – | – | –
2 | COc1ccc2c(c1)[nH]c1c(C)nccc12 [Harmine, harmine] | – | – | – | – | 77 | 85 | 100 | 91
3 | COc1ccc2c3ccnc(C)c3n(CCN(C)C)c2c1.O=C(O)/C=C/C(=O)O [HTW_A_8 fumarate, 2-(7-methoxy-1-methyl-9H-pyrido[3,4-b]indol-9-yl)-N,N-dimethylethan-1-amine Fumarate Salt (2:3)] | higher affinity ligands for 5-HT2C than 5-HT2A | no activation | antagonist activity | moderate selectivity for antagonism of 5-HT2C | – | – | – | –
